The text below walks through data of patent US11724980B2, “Quinones having high capacity retention for use as electrolytes in aqueous redox flow batteries” (President and Fellows of Harvard College, priority 2018, dated 2023).

Series [1] is described as follows: CV simulation as two one-electron reductions. The series is classed as physicochemical. Conditions: 5 mM in 1 M KOH. As for the experimental part:
FIG. 6. Capacitance-corrected CV of 5 mM 2,6-DBEAQ in 1 M KOH (solid grey line). The dashed red line represents the simulated total current arising from two successive one-electron reductions with reduction potentials of −0.517 and −0.511 V vs. SHE, according to the procedure outlined in a previous publication.^1 Each simulated reduction has a rate constant ko=7×10^−3 cm/s and α=0.5.
A first CV experiment was performed in which 2,6-DBEAQ was dissolved in pH 14 KOH solution at a concentration of 5 mM. CV measurements were plotted in FIG. 5A and include results for the isomers of 2,6-DBEAQ.
Following our previous study on 2,6-DHAQ^17 and literature reports^1,18 on quinone electrochemistry in the absence of proton donors, we simulated the CV of 2,6-DBEAQ as representing two reversible electron transfer steps at two different potentials E1 and E2. The separation between simulated redox potentials for the first (E1) and second (E2) electron reductions for 2,6-DBEAQ is considerably narrower than the corresponding peak separation for 2,6-DHAQ^17 (6 mV vs. 60 mV).
The pH dependence of the proton-coupled electron transfer (POET) redox reaction for a generalized anthraquinone (AQ) is often visualized by the nine-membered square scheme (FIG. 7). The horizontal direction indicates electron transfer (ET), and the vertical direction indicates proton transfer (PT or protonation). Under strongly alkaline conditions, where the pH is higher than the second pKa (pKa2) of the reduced AQ (AQ^2−), no protonation of the semiquinone anion will take place, and reduction proceeds via two ET steps, from AQ to a semiquinone (AQ-^●) at E1, and from AQ-^● to AQ^2− at E2 which is typically <E1. Depending on the value of E1-E2, the mechanism of AQ reduction in alkaline conditions can either be a concerted one-step, two-electron process or two single-electron processes. […]

Series [2] in a line: Full cell cycling against potassium ferro/ferricyanide posolyte. As to conditions: from NMR and CV detection limits, full cell cycled 11 days. As for the experimental part: Full cell cycling (i.e. with a ferro/ferricyanide-based posolyte) was performed with the same flow cell hardware but with a FUMASEP® E-620(K) membrane due to its high conductivity and low permeability of DBEAQ and ferricyanide compared to other membranes. For studies at pH 14, the posolyte volume was 30 mL, and its composition, when assembled, was 0.20 M potassium ferrocyanide, 0.08 M potassium ferricyanide, and 1 M KOH. The negolyte was prepared by dissolving 0.1 M 2,6-DBEAQ in its oxidized form in 1.2 M KOH solution, resulting in 0.1 M 2,6-DBEAQ, 1.2 M K+, and 1 M OH^− electrolyte solution. For studies at pH 12, both electrolytes comprised 10 mM OH^−; the pH was checked both with a pH meter and pH paper and adjusted where necessary. For all full cell studies, the negolyte was assembled in the fully discharged state. Galvanostatic cycling was performed at ±0.1 A/cm^2 at room temperature, with voltage limits of 0.6 and 1.4 V. To obtain the polarization curves, the cell was first charged to the desired state of charge and then polarized via linear sweep voltammetry at a rate of 100 mV/s. […] Electrochemical impedance spectroscopy (EIS) was performed at SOCs between 10 and 100% at open-circuit potential with a 10 mV perturbation and with frequency ranging from 1 to 300,000 Hz. […]

In the case of `O=C([O-])CCCOc1ccc2c(c1)C(=O)c1ccc(OCCCC(=O)[O-])cc1C2=O.[K+].[K+]` [2,6-DBEAQ, 4,4′-((9,10-anthraquinone-2,6-diyl)dioxy)dibutyric acid], the “rate constant ko of each simulated reduction” value in series [1] (α=0.5) is 0.007 cm/s. This compound also displayed an E1-E2 separation in series [1] (simulated CV) of 6 mV. Also, in series [2], the “upper limit of capacity fade rate caused by decomposition and/or membrane crossover” value is no more than 0.01 %/day.
